Values of other authors in patent US20080051459A1, “LONG TERM 24-HOUR INTESTINAL ADMINISTRATION OF LEVODOPA/CARBIDOPA” (Solvay Pharmaceuticals GmbH, priority 2006, published 2008).

Test system: patient
Settings: one patient; from 86 to 100 mg/hour in about 5 weeks

N[C@@H](Cc1ccc(O)c(O)c1)C(=O)O [levodopa]
Increase in administration rate (dose requirement): 16%
